Experimental data from US9549558B2, “Herbicidal azines” (BASF SE, priority 2012, dated 2017).

Key:
Format in all cases: in vivo
[1] = tested on: ABUTH (Abutilon theophrasti); assay: greenhouse post-emergence herbicidal test
Description: (§1) The culture containers used were plastic flowerpots containing loamy sand with approximately 3.0% of humus as the substrate. The seeds of the test plants were sown separately for each species.
(§2) For the post-emergence treatment, the test plants were first grown to a height of 3 to 15 cm, depending on the plant habit, and only then treated with the active ingredients which had been suspended or emulsified in water. For this purpose, the test plants were either sown directly and grown in the same containers, or they were first grown separately as seedlings and transplanted into the test containers a few days prior to treatment.
(§3) Depending on the species, the plants were kept at 10-25° C. or 20-35° C., respectively.
(§4) The test period extended over 2 to 4 weeks. During this time, the plants were tended, and their response to the individual treatments was evaluated.
(§5) Evaluation was carried out using a scale from 0 to 100. 100 means no emergence of the plants, or complete destruction of at least the aerial moieties, and 0 means no damage, or normal course of growth. A moderate herbicidal activity is given at values of at least 60, a good herbicidal activity is given at values of at least 70, and a very good herbicidal activity is given at values of at least 85.
(§6) The plants used in the greenhouse experiments were of the following species: […]

SETFA (Setaria faberi) = assay: greenhouse pre-emergence herbicidal test
Description: as §1
(§7) For the pre-emergence treatment, the active ingredients, which had been suspended or emulsified in water, were applied directly after sowing by means of finely distributing nozzles. The containers were irrigated gently to promote germination and growth and subsequently covered with transparent plastic hoods until the plants had rooted. This cover caused uniform germination of the test plants, unless this had been impaired by the active ingredients.
as §3, §4, §5, §6

[2] = tested on: AMARE (Amaranthus retroflexus); assay: greenhouse pre-emergence herbicidal test
Description: (§8) The seeds of the test plants were sown separately for each species. For the pre-emergence treatment, the active ingredients, which had been suspended or emulsified in water, were applied directly after sowing by means of finely distributing nozzles. The containers were irrigated gently to promote germination and growth and subsequently covered with transparent plastic hoods until the plants had rooted. This cover caused uniform germination of the test plants, unless this had been impaired by the active ingredients. Depending on the species, the plants were kept at 10-25° C. or 20-35° C., respectively. The test period extended over 2 to 4 weeks. During this time, the plants were tended, and their response to the individual treatments was evaluated. […] A moderate herbicidal activity is given at values of at least 60, a good herbicidal activity is given at values of at least 70, and a very good herbicidal activity is given at values of at least 85. The plants used in the greenhouse experiments were of the following species: [table]

[3] = tested on: ECHCG (Echinocloa crus-galli); assay: greenhouse pre-emergence herbicidal test
Description: as §1, §7, §3, §4, §5, §6

[4] = tested on: ABUTH (Abutilon theophrasti); assay: greenhouse pre-emergence herbicidal test
Description: as §8

[5] = tested on: AMARE (Amaranthus retroflexus); assay: greenhouse post-emergence herbicidal test
Description: as §1, §2, §3, §4, §5, §6

STEME (Stellaria media) = assay: greenhouse pre-emergence herbicidal test
Description: as §1, §7, §3, §4, §5, §6

[6] = tested on: CAPBP (Capsella bursa-pastoris); assay: greenhouse pre-emergence herbicidal test; settings: CAPBP
Description: as §1, §7, §3, §4, §5, §6

In the case of `COc1ccc(F)c(F)c1Nc1nc(N)nc(C(F)(F)F)n1` [Example 158], the herbicidal activity ([1]; 1000 g/ha) is reported as “very good (a very good herbicidal activity is given at values of at least 85)”.

With `CC=C(C)c1nc(N)nc(Nc2c(F)c(F)c(Br)c(F)c2F)n1` [Example 194] the herbicidal activity (SETFA (Setaria faberi); 500 g/ha) was “good (a good herbicidal activity is given at values of at least 70)”.

`Nc1nc(Nc2c(F)c(F)c(F)c(F)c2F)nc(C2CCC(C(F)(F)F)CC2)n1` (centres unmarked) [Example 165] was tested, and the herbicidal activity ([2]; 1000 g/ha) was “very good (a very good herbicidal activity is given at values of at least 85)”, the herbicidal activity ([3]; 1000 g/ha) was “very good (a very good herbicidal activity is given at values of at least 85)” and the herbicidal activity (SETFA (Setaria faberi); 1000 g/ha) was “very good (a very good herbicidal activity is given at values of at least 85)”.

`CC(C)(C)C(=O)N(c1nc(N)nc(C(C)(C)C)n1)c1c(F)c(F)cc(F)c1F` [Example 286] was tested, and the herbicidal activity ([4]; 125 g/ha) was “very good (a very good herbicidal activity is given at values of at least 85)”, the herbicidal activity ([2]; 125 g/ha) was “very good (a very good herbicidal activity is given at values of at least 85)” and the herbicidal activity (SETFA (Setaria faberi); 125 g/ha) was “very good (a very good herbicidal activity is given at values of at least 85)”.

For `CCC(C)(Cl)c1nc(N)nc(Nc2c(F)c(F)cc(F)c2F)n1` (centres unmarked) [Example 205], the herbicidal activity ([2]; 125 g/ha) was “very good (a very good herbicidal activity is given at values of at least 85)”, the herbicidal activity ([3]; 125 g/ha) was “very good (a very good herbicidal activity is given at values of at least 85)” and the herbicidal activity (SETFA (Setaria faberi); 125 g/ha) was “very good (a very good herbicidal activity is given at values of at least 85)”.

In the case of `CC(C)(F)c1nc(N)nc(Nc2c(F)ccc(F)c2Cl)n1` [Example 36], the herbicidal activity ([1]; 0.062 kg/ha) is reported as “very good (a very good herbicidal activity is given at values of at least 85)” and the herbicidal activity ([5]; 0.062 kg/ha) is reported as “very good (a very good herbicidal activity is given at values of at least 85)”.

With `C=C(C)c1nc(N)nc(Nc2c(F)c(F)c(F)c(F)c2F)n1` [Example 53] the herbicidal activity ([2]; 0.125 kg/ha) was “very good (a very good herbicidal activity is given at values of at least 85)” and the herbicidal activity (SETFA (Setaria faberi); 0.125 kg/ha) was “good (a good herbicidal activity is given at values of at least 70)”.

`Nc1nc(C2=CCCCC2)nc(N(C(=O)C2=CCCCC2)c2c(F)c(F)c(F)c(F)c2F)n1` [Example 303] was tested, and the herbicidal activity ([1]; 500 g/ha) was “good (a good herbicidal activity is given at values of at least 70)” and the herbicidal activity ([5]; 500 g/ha) was “good (a good herbicidal activity is given at values of at least 70)”.

`CCCCC(C#N)c1nc(N)nc(Nc2c(F)ccc(F)c2F)n1` (centres unmarked) [Example 197] was tested, and the herbicidal activity (SETFA (Setaria faberi); 1000 g/ha) was “good (a good herbicidal activity is given at values of at least 70)”.

In the case of `CCC(CC)c1nc(N)nc(Nc2c(F)c(F)c(F)c(F)c2F)n1` [Example 83], the herbicidal activity ([3]; 250 g/ha) is reported as “very good (a very good herbicidal activity is given at values of at least 85)”, the herbicidal activity (STEME (Stellaria media); 250 g/ha) is reported as “very good (a very good herbicidal activity is given at values of at least 85)” and the herbicidal activity ([6]; 250 g/ha) is reported as “very good (a very good herbicidal activity is given at values of at least 85)”.

With `N#Cc1cccc(F)c1Nc1nc(N)nc(C(F)(F)F)n1` [Example 151] the herbicidal activity ([1]; 500 g/ha) was “good (a good herbicidal activity is given at values of at least 70)”.

`Nc1nc(C2CCCC2)nc(N(C(=O)C2CCCC2)c2c(F)c(F)cc(F)c2F)n1` [Example 304] was tested, and the herbicidal activity ([2]; 1000 g/ha) was “very good (a very good herbicidal activity is given at values of at least 85)”, the herbicidal activity ([3]; 1000 g/ha) was “very good (a very good herbicidal activity is given at values of at least 85)” and the herbicidal activity (SETFA (Setaria faberi); 1000 g/ha) was “very good (a very good herbicidal activity is given at values of at least 85)”.

For `CC(C)(C)c1nc(N)nc(Nc2c(F)ccc(F)c2F)n1` [Example 80], the herbicidal activity ([3]; 125 g/ha) was “very good (a very good herbicidal activity is given at values of at least 85)”, the herbicidal activity (STEME (Stellaria media); 125 g/ha) was “very good (a very good herbicidal activity is given at values of at least 85)” and the herbicidal activity ([6]; 125 g/ha) was “very good (a very good herbicidal activity is given at values of at least 85)”.

`N#CC1(c2nc(N)nc(Nc3c(F)c(F)cc(F)c3F)n2)CC1` [Example 216] was tested, and the herbicidal activity ([4]; 250 g/ha) was “good (a good herbicidal activity is given at values of at least 70)”, the herbicidal activity ([2]; 250 g/ha) was “very good (a very good herbicidal activity is given at values of at least 85)” and the herbicidal activity (SETFA (Setaria faberi); 250 g/ha) was “good (a good herbicidal activity is given at values of at least 70)”.

For `Nc1nc(Nc2c(F)ccc(F)c2F)nc(C2CCCC2)n1` [Example 212], the herbicidal activity ([2]; 500 g/ha) was “very good (a very good herbicidal activity is given at values of at least 85)”, the herbicidal activity ([3]; 500 g/ha) was “very good (a very good herbicidal activity is given at values of at least 85)” and the herbicidal activity (SETFA (Setaria faberi); 500 g/ha) was “very good (a very good herbicidal activity is given at values of at least 85)”.

With `Nc1nc(CC2CC2)nc(Nc2c(F)cc(F)cc2F)n1` [Example 141] the herbicidal activity ([2]; 1000 g/ha) was “very good (a very good herbicidal activity is given at values of at least 85)”, the herbicidal activity ([3]; 1000 g/ha) was “good (a good herbicidal activity is given at values of at least 70)” and the herbicidal activity (SETFA (Setaria faberi); 1000 g/ha) was “very good (a very good herbicidal activity is given at values of at least 85)”.

In the case of `CN(c1nc(N)nc(C(C)(C)F)n1)c1c(F)c(F)c(F)c(F)c1F` [Example 307], the herbicidal activity ([2]; 125 g/ha) is reported as “very good (a very good herbicidal activity is given at values of at least 85)” and the herbicidal activity (SETFA (Setaria faberi); 125 g/ha) is reported as “very good (a very good herbicidal activity is given at values of at least 85)”.

In the case of `CC(C)(C)C1CCC(c2nc(N)nc(Nc3c(F)c(F)c(F)c(F)c3F)n2)CC1` (centres unmarked) [Example 177], the herbicidal activity ([2]; 500 g/ha) is reported as “very good (a very good herbicidal activity is given at values of at least 85)” and the herbicidal activity (SETFA (Setaria faberi); 500 g/ha) is reported as “good (a good herbicidal activity is given at values of at least 70)”.

`CC(Cl)(Cl)c1nc(N)nc(Nc2c(F)c(F)c(F)c(F)c2F)n1` [Example 147] was tested, and the herbicidal activity ([2]; 250 g/ha) was “very good (a very good herbicidal activity is given at values of at least 85)”, the herbicidal activity ([3]; 250 g/ha) was “very good (a very good herbicidal activity is given at values of at least 85)” and the herbicidal activity (SETFA (Setaria faberi); 250 g/ha) was “very good (a very good herbicidal activity is given at values of at least 85)”.

In the case of `Nc1nc(Nc2c(F)c(F)cc(F)c2F)nc(C(F)F)n1` [Example 150], the herbicidal activity ([4]; 500 g/ha) is reported as “very good (a very good herbicidal activity is given at values of at least 85)”, the herbicidal activity ([2]; 500 g/ha) is reported as “very good (a very good herbicidal activity is given at values of at least 85)” and the herbicidal activity (SETFA (Setaria faberi); 500 g/ha) is reported as “very good (a very good herbicidal activity is given at values of at least 85)”.

`Nc1nc(Nc2c(F)ccc(Cl)c2F)nc(C(F)(F)F)n1` [Example 126] was tested, and the herbicidal activity ([1]; 1000 g/ha) was “good (a good herbicidal activity is given at values of at least 70)” and the herbicidal activity ([5]; 1000 g/ha) was “very good (a very good herbicidal activity is given at values of at least 85)”.

`CC(C)(F)c1nc(N)nc(Nc2c(F)cc([N+](=O)[O-])cc2F)n1` [Example 220] was tested, and the herbicidal activity (SETFA (Setaria faberi); 500 g/ha) was “good (a good herbicidal activity is given at values of at least 70)”.

For `Nc1nc(Nc2c(F)cc(F)cc2F)nc(C2CCC2)n1` [Example 142], the herbicidal activity ([4]; 500 g/ha) was “good (a good herbicidal activity is given at values of at least 70)”, the herbicidal activity ([2]; 500 g/ha) was “very good (a very good herbicidal activity is given at values of at least 85)” and the herbicidal activity (SETFA (Setaria faberi); 500 g/ha) was “good (a good herbicidal activity is given at values of at least 70)”.

With `COC1CCC(c2nc(N)nc(Nc3c(F)c(F)c(F)c(F)c3F)n2)CC1` (centres unmarked) [Example 167] the herbicidal activity ([4]; 500 g/ha) was “good (a good herbicidal activity is given at values of at least 70)”, the herbicidal activity ([2]; 500 g/ha) was “very good (a very good herbicidal activity is given at values of at least 85)” and the herbicidal activity (SETFA (Setaria faberi); 500 g/ha) was “very good (a very good herbicidal activity is given at values of at least 85)”.
